# Experimental data published in US20240400553A1, “AMINE BASED MATRIPTASE 2 INHIBITORS AND USES THEREOF” (Disc Medicine, Inc., priority 2023, published 2024).
# Target: T1, Human Recombinant Matriptase 2 (Homo sapiens, UniProt Q8IU80)
# T1 construct: made in house
# T1 sequence (Q8IU80 1-811): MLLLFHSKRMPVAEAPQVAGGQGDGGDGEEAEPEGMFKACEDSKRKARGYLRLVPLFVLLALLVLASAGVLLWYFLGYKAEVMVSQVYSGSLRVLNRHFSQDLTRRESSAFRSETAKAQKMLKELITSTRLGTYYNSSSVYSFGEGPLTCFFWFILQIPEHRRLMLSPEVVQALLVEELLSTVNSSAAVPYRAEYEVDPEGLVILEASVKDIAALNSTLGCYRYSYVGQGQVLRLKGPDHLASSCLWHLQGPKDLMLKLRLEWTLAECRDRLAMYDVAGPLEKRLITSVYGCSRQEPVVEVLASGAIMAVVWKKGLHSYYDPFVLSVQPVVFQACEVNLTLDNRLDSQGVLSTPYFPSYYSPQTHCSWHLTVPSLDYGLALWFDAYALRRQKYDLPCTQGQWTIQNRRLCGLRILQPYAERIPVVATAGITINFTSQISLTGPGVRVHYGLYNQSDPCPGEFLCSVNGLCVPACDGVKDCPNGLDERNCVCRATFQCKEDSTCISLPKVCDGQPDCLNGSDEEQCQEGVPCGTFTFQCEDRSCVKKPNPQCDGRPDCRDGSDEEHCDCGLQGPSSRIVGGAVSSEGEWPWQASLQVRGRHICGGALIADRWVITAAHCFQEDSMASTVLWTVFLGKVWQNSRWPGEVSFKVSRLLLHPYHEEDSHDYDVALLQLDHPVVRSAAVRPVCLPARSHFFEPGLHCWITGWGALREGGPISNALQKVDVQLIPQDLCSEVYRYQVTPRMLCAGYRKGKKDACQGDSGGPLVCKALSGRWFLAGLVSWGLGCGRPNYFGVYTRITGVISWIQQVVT
# Test: Matriptase 2 inhibition, fluorescence based assay (Method I)
# Assay type: biochemical
# Settings: Table A; Ki of Matriptase-2; read-out: Mat-2 Ki
# In short: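 In-house recombinant enzyme (3.5 nM), preincubated 30 min with compound, then Boc-Gln-Ala-Arg-AMC substrate (62 μM) in 50 mM Tris pH 7.5, 150 mM NaCl, 0.01% gelatin, 1% DMSO, 25 °C. Fluorescence (Ex 360/Em 480 nm) read 60 min after substrate; IC50 from variable-slope sigmoidal fit of % inhibition.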
row,Ki,SMILES
1,≤ 0.1 µM,Cc1cccc(C)c1CS(=O)(=O)Nc1cc(Cn2c(C(=O)OCCN3CCN(C)CC3)cc3ccc(CN)nc32)c2ccccc2c1 [Compound 186]
2,≤ 0.1 µM,"NCc1ccc2cc(C(=O)OCC3CCNCC3)n(Cc3cc(NS(=O)(=O)Cc4ccccc4)cc4ccccc34)c2n1 [Compound 9, (piperidin-4-yl)methyl 6-(aminomethyl)-1-{[3-(phenylmethanesulfon-amido)naphthalen-1-yl]-methyl}-1H-pyrrolo[2,3-b]pyridine-2-carboxylate]"
3,≤ 0.1 µM,"C[C@@H](c1ccccc1)S(=O)(=O)Nc1cc(Cn2c(C(=O)OCC3CCN(C)CC3)cc3ccc(CN)nc32)c2ccccc2c1 (racemic) [Compound 11, (1-methylpiperidin-4-yl)methyl 6-(aminometh-yl)-1-{[3-(1-phenyl-ethanesulfonamido)naph-thalen-1-yl]methyl}-1H-pyrrolo[2,3-b]pyridine-2-carboxylate]"
4,≤ 0.1 µM,"COCCN1CCC(COC(=O)c2cc3ccc(CN)nc3n2Cc2cc(NS(=O)(=O)Cc3ccsc3)cc3ccccc23)CC1 [Compound 167, [1-(2-methoxyethyl)-piperidin-4-yl]methyl 6-(aminomethyl)-1-({3-[(thiophen-3-yl)meth-anesulfonamido]naph-thalen-1-yl}methyl)-1H-pyrrolo[2,3-b]pyridine-2-carboxylate]"
5,≤ 0.1 µM,"CCC1(COC(=O)c2cc3ccc(CN)nc3n2Cc2cc(NS(=O)(=O)Cc3ccccc3)cc3ccccc23)CCN(C)CC1 [Compound 31, (4-ethyl-1-methylpiper-idin-4-yl)methyl 6-(aminomethyl)-1-{[3-(phenylmethanesulfon-amido)naphthalen-1-yl]-methyl}-1H-pyrrolo[2,3-b]pyridine-2-carboxylate]"
6,≤ 0.1 µM,"Cc1cccc(C)c1CS(=O)(=O)Nc1cc(Cn2c(C(=O)OCCC3CCN(C)CC3)cc3ccc(CN)nc32)c2ccccc2c1 [Compound 185, 2-(1-methylpiperidin-4-yl)ethyl 6-(aminometh-yl)-1-({3-[(2,6-dimethyl-phenyl)methanesulfon-amido]naphthalen-1-yl}-methyl)-1H-pyrrolo[2,3-b]pyridine-2-carboxylate]"
7,≤ 0.1 µM,"CN1CCN(CCOC(=O)c2cc3ccc(CN)nc3n2Cc2cc(NS(=O)(=O)Cc3ccccc3)cc3ccccc23)CC1 [Compound 135, 2-(4-methylpiperazin-1-ylethyl 6-(aminomethyl)-1-{[3-(phenylmethane-sulfonamido)naphthalen-1-yl]methyl}-1H-pyrrolo-[2,3-b]pyridine-2-car-boxylate]"

# The next lines start with the compound.
row,SMILES,Ki
1,"NCc1ccc2cc(C(=O)OC[C@H]3COCCN3)n(Cc3cc(NS(=O)(=O)Cc4ccsc4)cc4ccccc34)c2n1 [Compound 158, [(3R)-morpholin-3-yl]-methyl 6-(aminometh-yl)-1-({3-[(thiophen-3-yl)methanesulfonamido]-naphthalen-1-yl}meth-yl)-1H-pyrrolo[2,3-b]-pyridine-2-carboxylate]",≤ 0.1 µM
2,"CN1CC[C@H](CNC(=O)c2cc3ccc(CN)nc3n2Cc2cc(NS(=O)(=O)Cc3ccccc3)cc3ccccc23)CC1=O (racemic) [Compound 37, rac-6-(aminomethyl)-N-{[(4R)-1-methyl-2-oxo-piperidin-4-yl]methyl}-1-{[3-(phenylmethane-sulfonamido)naphthalen-1-yl]methyl}-1H-pyr-rolo[2,3-b]pyridine-2-carboxamide]",≤ 0.1 µM
3,"NCc1ccc2cc(C(=O)O)n(Cc3cc(NS(=O)(=O)C4(c5ccccc5)CC4)cc4ccccc34)c2n1 [Compound 113, 6-(aminomethyl)-1-{[3-(1-phenylcyclopropane-sulfonamido)naphthalen-1-yl]methyl}-1H-pyr-rolo[2,3-b]pyridine-2-carboxylic acid]",0.5 to 3 µM
4,"CN(C)C(=O)CCCNC(=O)c1cc2ccc(CN)nc2n1Cc1cc(NS(=O)(=O)Cc2ccccc2)cc2ccccc12 [Compound 38, 4-{[6-(aminomethyl)-1-{[3-(phenylmethane-sulfonamido)naphthalen-1-yl]methyl}-1H-pyr-rolo[2,3-b]pyridin-2-yl]-formamido}-N,N-dimethylbutanamide]",≤ 0.1 µM
5,"NCc1ccc2cc(C(=O)O)n(Cc3cc(NS(=O)(=O)Cc4cccs4)cc4ccccc34)c2n1 [Compound 153, 6-(aminomethyl)-1-({3-[(thiophen-2-yl)methane-sulfonamido]naphthalen-1-yl}methyl)-1H-pyr-rolo[2,3-b]pyridine-2-carboxylic acid]",≤ 0.1 µM
6,"CC(C)N(CCOC(=O)c1cc2ccc(CN)nc2n1Cc1cc(NS(=O)(=O)Cc2ccccc2)cc2ccccc12)C(C)C [Compound 131, 2-[bis(propan-2-yl)-amino]ethyl 6-(amino-methyl)-1-{[3-(phenyl-methanesulfonamido)-naphthalen-1-yl]meth-yl}-1H-pyrrolo[2,3-b]-pyridine-2-carboxylate]",0.1 to 0.5 µM
7,"C[C@H](OC(=O)c1ccccc1)OC(=O)c1cc2ccc(CN)nc2n1Cc1cc(NS(=O)(=O)Cc2ccccc2)cc2ccccc12 (racemic) [Compound 124, 1-[6-(aminomethyl)-1-{[3-(phenylmethanesul-fonamido)naphthalen-1-yl]methyl}-1H-pyrrolo-[2,3-b]pyridine-2-car-bonyloxy]ethyl benzoate]",0.5 to 3 µM
8,"NCc1ccc2cc(C(=O)OCCN3CCNCC3)n(Cc3cc(NS(=O)(=O)Cc4ccccc4)cc4ccccc34)c2n1 [Compound 33, 2-(piperazin-1-yl)ethyl 6-(aminomethyl)-1-{[3-(phenylmethanesulfon-amido)naphthalen-1-yl]-methyl}-1H-pyrrolo[2,3-b]pyridine-2-carboxylate]",≤ 0.1 µM
9,"CC(C)(C)n1ccnc1COC(=O)c1cc2ccc(CN)nc2n1Cc1cc(NS(=O)(=O)Cc2ccccc2)cc2ccccc12 [Compound 46, (1-tert-butyl-1H-imid-azol-2-yl)methyl 6-(aminomethyl)-1-{[3-(phenylmethanesulfon-amido)naphthalen-1-yl]-methyl}-1H-pyrrolo[2,3-b]pyridine-2-carboxylate]",≤ 0.1 µM

# Same assay, conditions: Table A; Ki of Matriptase-2 given as class symbols; read-out: Mat-2 Ki
row,Ki,SMILES
1,0.1 to 0.5 µM,"CN1CCC[C@H]1CCOC(=O)Nc1cc(Cn2c(C(=O)O)cc3ccc(CN)nc32)c2ccccc2c1 [Compound 289, (S)-6-(aminomethyl)-1-((3-(((2-(1-methylpyrrolidin-2-yl)ethoxy)carbonyl)amino)naphthalen-1-yl)methyl)-1H-pyrrolo[2,3-b]pyridine-2-carboxylic acid]"
2,0.5 to 3 µM,"CN1CCC(COC(=O)c2cc3ccc(CN)nc3n2Cc2cc(NS(=O)(=O)CC3CCNCC3)cc3ccccc23)CC1 [Compound 249, (1-methylpiperidin-4-yl)methyl 6-(amino-methyl)-1-({3-{(piperi-din-4-yl)methanesul-fonamido]naphthalen-1-yl}methyl)-1H-pyr-rolo[2,3-b]pyridine-2-carboxylate]"

# The remaining lines, values behind:
row,SMILES,Ki
1,"CCN(CC)CCS(=O)(=O)Nc1cc(Cn2c(C(=O)O)cc3ccc(CN)nc32)c2ccccc2c1 [Compound 265, 6-(aminomethyl)-1-({3-[2-(diethylamino)ethane-sulfonamido]naphthalen-1-yl}methyl)-1H-pyr-rolo[2,3-b]pyridine-2-carboxylic acid]",0.1 to 0.5 µM
2,"CC(C)(C)OC(=O)N1CCOC[C@@H]1CS(=O)(=O)Nc1cc(Cn2c(C(=O)O)cc3ccc(CN)nc32)c2ccccc2c1 (racemic) [Compound 277, 6-(aminomethyl)-1-{[3-({4-[(tert-butoxy)car-bonyl]morpholin-3-yl}-methanesulfonamido)-naphthalen-1-yl]methyl}-1H-pyrrolo[2,3-b]pyr-idine-2-carboxylic acid]",0.5 to 3 µM
3,"NCc1ccc2cc(C(=O)O)n(Cc3cc(NS(=O)(=O)Cc4ccncc4)cc4ccccc34)c2n1 [Compound 245, 6-(aminomethyl)-1-({3-[(pyridin-4-yl)methane-sulfonamido]naphthalen-1-yl}methyl)-1H-pyr-rolo[2,3-b]pyridine-2-carboxylic acid]",0.1 to 0.5 µM

# Same assay, conditions: Table B; Human Recombinant Matriptase 2, 3.5 nM enzyme, 62 μM substrate, 30 mins preincubation; read-out: Mean Ki
row,Ki,SMILES
1,> 3 µM,C=Cc1c(N)cc(Br)cc1Cn1c(C(=O)OCC2CCN(C)CC2)cc2ccc(CN)nc21 [Compound 2.30]
2,≤ 0.1 µM,CN1CCC(COC(=O)c2cc3ccc(CN)nc3n2Cc2cc(NS(=O)(=O)Cc3ccsc3)cc3ccccc23)CC1=O (stereo not drawn) [Compound 2.32]
3,≤ 0.1 µM,CN1CCC(CCOC(=O)c2cc3ccc(CN)nc3n2Cc2cc(NS(=O)(=O)Cc3ccsc3)cc3ccccc23)CC1=O (stereo not drawn) [Compound 2.4]
4,≤ 0.1 µM,CN1CC(COC(=O)c2cc3ccc(CN)nc3n2Cc2cc(NS(=O)(=O)Cc3ccsc3)cc3ccccc23)CC1=O (stereo not drawn) [Compound 2.20]

# The next lines start with the compound.
row,SMILES,Ki
1,CNC12CC(COC(=O)c3cc4ccc(CN)nc4n3Cc3cc(NS(=O)(=O)Cc4ccccc4)cc4ccccc34)(C1)C2 [Compound 2.41],≤ 0.1 µM
2,CN(C)C(=O)CCCOC(=O)c1cc2ccc(CN)nc2n1Cc1cc(CS(=O)(=O)Cc2ccsc2)cc2ccccc12 [Compound 2.10],≤ 0.1 µM
